# Values of other authors in patent US20130030007A1, “Obesity Small Molecules” (AKRON MOLECULES GMBH, priority 2010, published 2013).
# Read-outs that look alike come from different tables or passages of the source. Starred links: 1 amine or outer side, 2 acyl side, 3 side chain; linkers in the order of their positions; H or OH if unused. Positions of bridges follow the written chain, without caps; N, C: chain ends. Non-standard residues stand in square brackets, D forms with d. Residues, ends and D or L forms follow the SMILES beside them. Adda = CO[C@@H](Cc1ccccc1)[C@@H](C)/C=C(C)/C=C/[C@H](N[*:1])[C@H](C)C(=O)[*:2]; dAsp(3S-Me) = C[C@H](C(=O)[*:3])[C@@H](N[*:1])C(=O)[*:2]; d(γGlu) = O=C(O)[C@@H](CCC(=O)[*:2])N[*:1]; NMeDha = C=C(NC)C(=O)O
# System: human ortholog of Drosophila obesity gene
# Set-up: key: O: Obesity - obesity pathway interaction; B: validated binding partner
# Details: cited from earlier work
# [1] = interaction of the small molecule with the human ortholog(s) / Drosophila gene(s) listed in the same table line
SMILES,Type: Type of interaction,Type: Type of interaction [1]
CCCCCCCNS(=O)(=O)c1cccc2c(Cl)cccc12,B,
COc1ccc(C2=N[C@@H](c3ccc(Cl)cc3)[C@@H](c3ccc(Cl)cc3)N2C(=O)N2CCNC(=O)C2)c(OC(C)C)c1 (racemic) [nutlin 3],O,
Nc1nc2[nH]cc(CCc3ccc(C(=O)N[C@@H](CCC(=O)O)C(=O)O)cc3)c2c(=O)[nH]1 [LY231514],O,
C=C1C(=O)N[C@H](C)C(=O)N[C@@H](CC(C)C)C(=O)N[C@@H](C(=O)O)[C@H](C)C(=O)N[C@@H](CCCNC(=N)N)C(=O)N[C@@H](/C=C/C(C)=C/[C@H](C)[C@H](Cc2ccccc2)OC)[C@H](C)C(=O)N[C@@H](C(=O)O)CCC(=O)N1C [MCYST-LR] (R[Adda][d(γGlu)][NMeDha][dA]L[dAsp(3S-Me)]-OH; lactam N-7),O,
CS(=O)(=O)c1cc(F)cc2c3c(n(Cc4ccc(Cl)cc4)c12)[C@@H](CC(=O)O)CC3 [MK-0524],B,
O=c1c(O)c(-c2ccc(O)cc2O)oc2cc(O)cc(O)c12 [MORIN],,O
COc1ccc(Cl)cc1C(=O)NCCc1ccc(S(=O)(=O)NC(=O)NC2CCCCC2)cc1 [Malix],,B
CSC[C@H]1O[C@@H](n2cnc3c(N)ncnc32)[C@H](O)[C@@H]1O [MeSAdo],B,
CCCC(C)C1(CC)C(=O)NC(=O)NC1=O (stereo not drawn) [Mebumal],O,
CCC(=O)O[C@@H]1CC(=O)O[C@H](C)C/C=C/C=C/[C@H](O)[C@H](C)C[C@H](CC=O)[C@H](O[C@@H]2O[C@H](C)[C@@H](O[C@H]3C[C@@](C)(O)[C@@H](OC(=O)CC)[C@H](C)O3)[C@H](N(C)C)[C@H]2O)[C@H]1OC [Medemycin],,O
CC(=O)O[C@]1(C(C)=O)CC[C@H]2[C@@H]3C[C@H](C)C4=CC(=O)CC[C@]4(C)[C@H]3CC[C@@]21C [Medroxyprogesterone 17-Acetate],B,
COc1ccc2[nH]cc(CCNC(C)=O)c2c1 [Melatol],,B
CC12CC3CC(C)(C1)CC(N)(C3)C2 [Memantine],,B
CC(C)=CCC/C(C)=C/CC/C(C)=C/CC/C(C)=C/CC1=C(C)C(=O)c2ccccc2C1=O [Menatetrenone],,O
CCC1(c2ccccc2)NC(=O)N(C)C1=O (stereo not drawn) [Mephenytoin],,B
CCCC(C)(COC(N)=O)COC(N)=O [Meprobamate],O,
CNC[C@H](O)c1cccc(O)c1 [Mesaton],B,
CN[C@@H](C)Cc1ccccc1 [Meth],O,
COc1ccc2c(c1)C13CCCCC1C(C2)N(C)CC3 (stereo not drawn) [Methorphan],O,
COc1c2occc2cc2ccc(=O)oc12 [Methoxsalen],,B
CSc1ncnc2c1ncn2[C@@H]1O[C@H](CO)[C@@H](O)[C@H]1O [Methylthioinosine],B,
CC(C)(C(=O)c1cccnc1)c1cccnc1 [Metopiron],,O
C[C@]1(O)CC[C@H]2[C@@H]3CCC4=CC(=O)CCC4=C3C=C[C@@]21C [Metribolone],B,
c1cncnc1 [Miazine],B,
CCCOC(C(=O)OC1CCN(C)CC1)(c1ccccc1)c1ccccc1 [Mictonorm],B,
Cc1ncc2n1-c1ccc(Cl)cc1C(c1ccccc1F)=NC2 [Midazolam],O,
CC#C[C@]1(O)CC[C@H]2[C@@H]3CCC4=CC(=O)CCC4=C3[C@@H](c3ccc(N(C)C)cc3)C[C@@]21C [Mifepristone],,B
NC(Cn1ccc(=O)c(O)c1)C(=O)O (stereo not drawn) [Mimosine],,O
O=C1c2c(O)ccc(O)c2C(=O)c2c(NCCNCCO)ccc(NCCNCCO)c21 [Mitoxantrone],,O
CCOC(=O)[N-]c1cn(N2CCOCC2)n[o+]1 [Molsidomine],,B
